Entries after “also recorded” stand apart in the source; their conditions may differ.

One assay deals with E. coli ATCC 25922. In words: MIC of peptide combinations (synergy). It is filed as cell-based, Escherichia coli. The following applies: equimolar combination with oncocin or P9, Figure 3. The method, then: (§1) Peptides were assessed for their MIC against various bacterial strains. Peptides were serially diluted at two x final concentration across a 96 well plate with the final well containing no peptide and control lanes of no antibacterial agent, and lanes of no bacteria or antibacterial agent. All dilutions were in sterile MHB. Each bacterial strain was grown overnight before inoculation of a fresh culture in the morning of assay, the culture was allowed to grow until OD600 = ∼1.0 before dilution to achieve 2 × 10^6 CFU/ml based of the equations 2e+7e^(2.9218∗OD600) for E. coli and 2e+7e^(2.5537∗OD600). Bacteria were added 1:1 to wells containing the serially diluted peptide(s) and were allowed to grow for 6 h, in regards to E. coli, or 24 h, in regards to S. aureus, before measuring OD620 on a plate reader. Bacterial growth per well was determined using the following equation: Bacterial growth %= (OD600 sample−OD600 negative control)/(OD600 positive control−OD600 negative control)×100
(§2) The MIC breakpoint was determined using GraphPad PRISM observing for the concentration at which growth surpassed 10%.
One potential reason is that these peptides are unable to access the cytoplasm of the cell. Consequently, the synergistic capacity of PP30, attacin-C, and antibacterial napin with oncocin or P9 was examined (Figure 3).
(A) MIC assessment of oncocin with/without antibacterial napin/PP30/attacin-C. (B) MIC assessment of P9 with/without antibacterial napin/PP30/attacin-C. Each peptide is present in equimolar concentration with the individual concentration shown in the X axis.

Assay [1] has as its system DnaK. The following applies: peptide 300 µM; 0.3 µM DnaK; 20 mM TRIS, 150 mM KCl, 5 mM MgCl2, 1 mM ATP, pH 7.5; 1 h at 37°C; Malachite Green, A620; result in words (Figure 1). The method, then: Peptides were assessed for their capacity to inhibit the ATPase activity of DnaK by a colorimetric assay. Peptide at 300 µM concentration were assayed in 100 µl format where each reaction contained 0.3 µM of DnaK in DnaK assay buffer (20 mM TRIS, 150 mM KCl, 5 mM MgCl2, 1 mM ATP, pH 7.5). After 60 min, 20 µl samples were taken (3 x per reaction) for assessment by Malachite Green Phosphate assay kit (Sigma—MAK307). The samples were added to 80 µl of Milli-Q water in a 96 well plate, before adding 20 µl of staining solution, and incubated at room temperature for 30 min before measuring A620 on a plate reader ([Zahn et al., 2013]). A negative control was included for each peptide where the same assay conditions are used in the absence of DnaK. The relative activity of DnaK in the presence of each of the putative DnaK binding peptides was assessed using the following equation: DnaKacitivity %= (OD620 sample−OD620 negative control)/(OD620 positive control−OD620 negative control) × 100
We selected four potential PrAMPs from the list of newly identified PrAMPs for evaluation. […] Each was chemically synthesized, purified, and exchanged into HCl salt prior to investigation of antimicrobial properties (Supplementary Information, Supplementary Figure S1). The ability of the potential PrAMPs to modulate the activity of DnaK was assessed at 300 µM in vitro through a colorimetric assay with a known binder of DnaK, oncocin, as a positive control peptide (Figure 1).
Each was incubated with DnaK for 1 h at 37°C and the free phosphate generated was detected with a Malachite Green-based stain. Activities are reported in % activity relative to DnaK positive and DnaK negative samples with constraints at 0% activity. All peptides were assayed at 300 µM. One-way ANOVA followed by Dunnett’s multiple comparisons test was performed to compare the control (DnaK) to each of the peptides, p < 0.05 (*) and p < 0.001 (**) are indicated.

The subject of assay [2] is Staphylococcus aureus ATCC 29213. Put plainly: Antibacterial MIC assay, S. aureus. Type of assay: cell-based. The note with it: MHB, up to 128 µM, 24 h growth, OD read-out; result in words. On the procedure:
(§3) For the antimicrobial assays, the strains used were as follows: Staphylococcus aureus ATCC 29213, Escherichia coli ATCC 25922 and E. coli BAA 3051.
as §1, §2
FIGURE 2 Minimum inhibitory concentration of potential PrAMPs. […]

The test system of the next assay is E. coli. The note with it: Gram-negative bacterium; ref Ngai and Ng, 2004; cited from earlier work. The method, then: (§4) It is interesting to note that the peptides tested which inhibit DnaK are in fact not antimicrobial at concentrations of 128 µM or less. This may be because the peptides act in vivo as part of a complex multi-peptide cocktail with synergistic effects.

In another assay the test system is Bacillus subtilis. The following applies: Gram-positive bacterium; ref Ngai and Ng, 2004; cited from earlier work. The method, then: as §4
Assay [3] concerns Escherichia coli ATCC 25922 and E. coli BAA 3051. In words: Antibacterial MIC assay, E. coli. Type of assay: cell-based. The following applies: MHB, serial dilution up to 128 µM, 6 h growth, OD read-out, MIC = concentration at which growth surpassed 10%; result in words. On the procedure: as §3, §1, §2
FIGURE 2 Minimum inhibitory concentration of potential PrAMPs. Each of the potential PrAMPs were assayed for MIC against E. coli ATCC 25922 (A), E. coli BACC 3051 (B), and S. aureus 29213 (C), up to 128 µM in MHB media.

A further assay concerns bacterial membrane. The following applies: ref Shen et al., 2010; cited from earlier work. The text has this: This dual mode of action of PP30, membrane lysis and DnaK […], is novel and unreported for other native PrAMPs.
In assay [4] the test system is DnaK. The note with it: ref Krizsan et al., 2014; cited from earlier work. The text has this:
Recently, we assessed a new set of criteria for PrAMPs and scanned the DRAMP database (http://dramp.cpu-bioinfor.org/) to detect novel PrAMPs based on similarity to known DnaK inhibitors ([Welch et al., 2020]). […] Here, we undertook screening of these putative new ...

With “PAQPFRFPKHPQGPQTRPPI [Antibacterial napin, predicted PrAMP from the DRAMP database, chemically synthesized 20-residue peptide]”, the “Synergy in combination treatment (MIC)” value with E. coli ATCC 25922 is given as “no synergistic effects”. The “Effect on DnaK activity (ATP hydrolysis), % activity relative to DnaK positive and negative samples” value in the assay on DnaK [1] is reported as “inhibit DnaK activity”. Moreover, the “Antimicrobial activity (MIC assessment) against S. aureus” value in assay [2] is “inactive”. The “Activity against E. coli” value with E. coli was “inactive”. Also, the “Activity against Bacillus subtilis” value with Bacillus subtilis is “active”. Also, the “Antimicrobial activity (MIC assessment) against E. coli” value in assay [3] was “inactive; also recorded: lack of direct antimicrobial activity”.

“QRPYTQPLIYYPPPPTPPRIYRA [Attacin-C, predicted PrAMP from the DRAMP database, chemically synthesized 23-residue peptide]”: in the assay with E. coli ATCC 25922, the “Synergy in combination treatment (MIC)” value is reported as “no synergistic effects”. The “Effect on DnaK activity (ATP hydrolysis), % activity relative to DnaK positive and negative samples” value in the assay on DnaK [1] was “inhibit DnaK activity”. For the same sequence, the “Antimicrobial activity (MIC assessment) against E. coli” value in assay [3] is listed as “lack of direct antimicrobial activity”.

For the sequence “YVPPVQKPHPNGPKFPTFP [PP30, predicted PrAMP from the DRAMP database, chemically synthesized 19-residue peptide]”, in the assay on bacterial membrane, the Membrane-lytic action entry is given as “membrane-lytic”. Also, the “Synergy in combination treatment (MIC)” value with E. coli ATCC 25922 was “no synergistic effects”. For the same sequence, the “Effect on DnaK activity (ATP hydrolysis), % activity relative to DnaK positive and negative samples” value in the assay with DnaK [1] is listed as “inhibit DnaK activity”. In addition, in assay [3], the “Antimicrobial activity (MIC assessment) against E. coli” value was “has not however resulted in observable MICs; also recorded: lack of direct antimicrobial activity”.

Regarding VDKPPYLPRPRPPRRIYNR [Oncocin], the DnaK binding result with DnaK [4] is listed as “DnaK binder”.

“RFIPPILRPPVRPPFRPPFRPPFRPPPIIRFFGG [P9, predicted PrAMP from the DRAMP database, chemically synthesized 34-residue peptide]”: the “Effect on DnaK activity (ATP hydrolysis), % activity relative to DnaK positive and negative samples” value in the assay on DnaK [1] is listed as “increases the ATP hydrolysis of DnaK”. For the same sequence, the “Antimicrobial activity (MIC assessment) against E. coli” value in assay [3] is “potent antimicrobial activity”.

The values are drawn from article PMC9043238, “Evaluation of Potential DnaK Modulating Proline-Rich Antimicrobial Peptides Identified by Computational Screening” (Frontiers in Chemistry, 2022).
